Experimental data: patent publication US20220056014A1, “PHENYLPYRROLIDINE COMPOUND AND USE THEREOF” (WUHAN HUMANWELL INNOVATIVE DRUG RESEARCH AND DEVELOPMENT …, priority 2018, published 2022)

How the values were obtained:
PDE4B = target: T1, PDE4B (Homo sapiens, UniProt Q07343); experiment: PDE4B enzyme activity assay (PDE-Glo Phosphodiesterase Assay Kit); assay type: biochemical; conditions: for IC50 (PDE4D)/IC50 (PDE4B): selectivity ratio
T1 construct: purchased Enzo Life Sciences BML-SE522-0020
Protocol: (§1) For the previously synthesized compounds, the inhibitory activity of the compounds against PDE4B and against PDE4D was tested by using PDE-Glo Phosphodiesterase Assay Kit (promega, V1361). In short, in accordance with the instructions of the kit, a concentrated stock solution (10 mM) the compound to be tested was first prepared with DMSO solvent, and the concentrated stock solution was then diluted into 10× working solutions with a Reaction buffer provided in the kit. With the Reaction buffer, on ice, PDE4B enzyme (Enzo Life Sciences, BML-SE522-0020) was diluted to a concentration of 1 ng/μl to obtain a PDE4B enzyme working solution, and PDE4D enzyme (Enzo Life Sciences, BML-SE523-0020) was diluted to a concentration of 4 ng/μl to obtain a PDE4D enzyme working solution. 1.5 μl of the PDE4B working solution (or PDE4D working solution) and 1 μl of the compound working solution were added to wells of 384-well plate (Corning, CLS3707), and incubated with shaking at room temperature for 5 min, followed by adding 2.5 μl of cAMP (in Reaction buffer, 2 μM) per well, incubating with shaking at room temperature for 20 min. 2.5 μl/well of 1× Termination Buffer, and then 2.5 μl/well of 1× Detection Buffer were added, and further incubated with shaking at room temperature for 20 min. 10 μl/well of 1× Kinase-Glo was added, and the plate was incubated with shaking at room temperature for 10 min, and bioluminescence was measured with PheraStar instrument. The experimental results were plotted with GraphPad Prism software, and fitted to calculate IC50 of each compound.

PDE4D = target: T2, PDE4D (Homo sapiens, UniProt Q08499); experiment: PDE4D enzyme activity assay (PDE-Glo Phosphodiesterase Assay Kit); assay type: biochemical
T2 construct: purchased Enzo Life Sciences BML-SE523-0020
Protocol: as §1

[1] = system: LPS-induced secretion of TNFα in human PBMCs; experiment: LPS-induced secretion of TNFα in human PBMCs; assay type: cell-based; conditions: 24 h, LPS 10 ng/ml
Protocol: Extraction process of peripheral blood mononuclear cells (PBMCs): one unit of human peripheral blood concentrate (concentrated from 200 cc peripheral blood) was sucked and added with 0.9% saline until a total volume reached 120 ml, and mixed homogenously. 15 ml Lymphoprep™ was added into 50 ml centrifuge tube, and then 30 ml of diluted blood concentrate was carefully and slowly added thereto, allowing the diluted blood to be stacked on the layered solution and preventing the diluted blood from being mixed into the separated solutions or breaking the surface of the separated solution, wherein a ratio of Lymphoprep™ to the diluted blood was 1:2. The centrifuge tubes were balanced and placed in a horizontal centrifuge (eppendorf, 5810R), and centrifuged at 800 g and 20° C. for 20 min. The centrifuge tubes were carefully taken out. PBMCs were absorbed by directly inserting the Pasteur pipette deep into the buffy coat. The obtained PBMCs were gently pipetted with 3 times the volume of 0.9% normal saline or PBS (without calcium or magnesium ions) to mix homogenously. After that, the cells were centrifuged at 250 g and 20° C. for 10 min, the supernatant was removed to remove the platelets remaining in the cell suspension. The obtained cell pellet was resuspended in 20 ml of PBS, and counted using trypan blue.
Compound screening by using PBMCs: the PBMC suspension obtained above was centrifuged to remove PBS, then resuspended in complete medium (RPMI1640+10% FBS+1% P/S) and counted. 100 μL/well of the cells was seeded at 5×10^4/well. Each of the compounds to be screened was prepared as 4 times the final concentration, which was added to the cells at 50 μL/well. The compound was pre-incubated for 30 min in advance of being added to the cells. Meanwhile, control wells to which the compound was not added were provided. A final stimulation concentration of LPS was 10 ng/ml, and LPS was formulated as 4 times the final stimulation concentration, and added to the cells at 50 μL/well. Meanwhile, control wells, i.e., wells without LPS were provided. The cells were incubated for 24 h, and 10% of the supernatant was collected for detection. The obtained supernatant was detected using Invitrogen's Human TNF-α kit (REF: 88-7346-88).

T1 sequence (Q07343 whole entry): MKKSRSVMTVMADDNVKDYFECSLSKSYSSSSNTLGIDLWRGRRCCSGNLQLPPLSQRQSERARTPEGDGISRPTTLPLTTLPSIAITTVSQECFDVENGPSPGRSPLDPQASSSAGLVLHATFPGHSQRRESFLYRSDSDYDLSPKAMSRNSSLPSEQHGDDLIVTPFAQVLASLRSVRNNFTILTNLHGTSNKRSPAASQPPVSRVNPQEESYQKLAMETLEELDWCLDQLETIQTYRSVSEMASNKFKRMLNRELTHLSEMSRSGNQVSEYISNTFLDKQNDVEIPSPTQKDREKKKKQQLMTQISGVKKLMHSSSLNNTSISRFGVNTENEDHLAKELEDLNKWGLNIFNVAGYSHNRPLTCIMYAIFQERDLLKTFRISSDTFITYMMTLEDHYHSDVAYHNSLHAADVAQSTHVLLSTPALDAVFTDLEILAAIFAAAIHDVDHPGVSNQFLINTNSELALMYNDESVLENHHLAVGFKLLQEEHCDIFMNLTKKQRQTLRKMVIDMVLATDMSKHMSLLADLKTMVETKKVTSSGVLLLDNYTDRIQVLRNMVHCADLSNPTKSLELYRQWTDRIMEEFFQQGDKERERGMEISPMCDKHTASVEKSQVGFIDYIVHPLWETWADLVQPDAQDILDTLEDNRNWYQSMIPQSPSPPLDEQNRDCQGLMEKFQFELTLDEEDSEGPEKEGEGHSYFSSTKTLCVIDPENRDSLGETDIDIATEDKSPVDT
T2 sequence (Q08499 whole entry): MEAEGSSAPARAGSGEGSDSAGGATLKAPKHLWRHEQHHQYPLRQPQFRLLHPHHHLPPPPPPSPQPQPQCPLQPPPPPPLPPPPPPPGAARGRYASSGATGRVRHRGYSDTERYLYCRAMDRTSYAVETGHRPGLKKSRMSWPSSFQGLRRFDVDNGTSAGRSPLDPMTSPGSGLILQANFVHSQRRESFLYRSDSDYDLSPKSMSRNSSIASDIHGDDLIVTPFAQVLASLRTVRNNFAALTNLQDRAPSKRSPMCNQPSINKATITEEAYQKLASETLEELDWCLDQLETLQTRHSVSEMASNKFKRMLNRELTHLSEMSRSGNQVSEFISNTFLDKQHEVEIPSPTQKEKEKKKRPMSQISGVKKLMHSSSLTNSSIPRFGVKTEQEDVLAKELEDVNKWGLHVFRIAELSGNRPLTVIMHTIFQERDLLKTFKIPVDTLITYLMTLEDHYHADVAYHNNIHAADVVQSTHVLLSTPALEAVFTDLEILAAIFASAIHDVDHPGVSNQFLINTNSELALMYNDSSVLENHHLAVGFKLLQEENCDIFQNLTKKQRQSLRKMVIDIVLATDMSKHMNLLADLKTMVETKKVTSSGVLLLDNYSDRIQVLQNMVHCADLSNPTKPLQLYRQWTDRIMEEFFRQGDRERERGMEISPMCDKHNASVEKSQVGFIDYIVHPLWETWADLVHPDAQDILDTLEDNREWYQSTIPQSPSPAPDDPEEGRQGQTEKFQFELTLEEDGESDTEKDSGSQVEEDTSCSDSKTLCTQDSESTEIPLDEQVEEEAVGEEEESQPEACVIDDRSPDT

IC50 (PDE4B)	inhibition of PDE4B (in words) (PDE4B)	Structure (SMILES)	IC50 ([1]; Homo sapiens, PBMC)	selective inhibitory activity against PDE4B versus PDE4D, compared with the positive control compound (in words) (PDE4B)	also measured
0.41 nM		COc1ccc([C@@H]2CN(C(=O)[C@@H](O)CO)C[C@@]2(C)[C@@H](C)O)cc1OC1CN(c2ccc(C)c(C#N)n2)C1 [Compound 003, 6-(3-(5-((3S,4S)-1-((S)-2,3-dihydroxypropanoyl)-4-((R)-1-hydroxyethyl)-4-methylpyrrolidin-3-yl)-2-methoxyphenoxy)azetidin-1-yl)-3-methylpicolinonitrile]	1.48 nM		IC50 (PDE4D)/IC50 (PDE4B) (PDE4B): 0.95; IC50 (PDE4D): 0.39 nM
	effectively inhibit PDE4B	COc1ccc([C@@H]2CN(C(=O)[C@@H](O)CO)C[C@@]2(C)[C@@H](C)O)cc1OC1CN(c2ncc(C)cc2Cl)C1 [Compound 005, (S)-1-((3S,4S)-4-(3-((1-(3-chloro-5-methylpyridin-2-yl)azetidin-3-yl)oxy)-4-methoxyphenyl)-3-((R)-1-hydroxyethyl)-3-methylpyrrolidin-1-yl)-2,3-dihydroxypropan-1-one]	6.18 nM	significantly higher than that control compound	
	effectively inhibit PDE4B	COc1ccc([C@@H]2CN(C(=O)[C@@H](O)CO)C[C@@]2(C)[C@@H](C)O)cc1OC1CN(c2ccc(C#N)c(C)n2)C1 [Compound 013, 6-(3-(5-((3S,4S)-1-((S)-2,3-dihydroxypropanoyl)-4-((R)-1-hydroxyethyl)-4-methylpyrrolidin-3-yl)-2-methoxyphenoxy)azetidin-1-yl)-2-methylnicotinonitrile]		significantly higher than that control compound	
	effectively inhibit PDE4B	COc1ccc([C@@H]2CN(C(=O)[C@@H](O)CO)C[C@@]2(C)[C@@H](C)O)cc1OC1CN(c2ncc(C)cn2)C1 [Compound 016, (S)-2,3-dihydroxy-1-((3S,4S)-3-((R)-1-hydroxyethyl)-4-(4-methoxy-3-((1-(5-methylpyrimidin-2-yl)azetidin-3-yl)oxy)phenyl)-3-methylpyrrolidin-1-yl)propan-1-one]		significantly higher than that control compound	
	effectively inhibit PDE4B	CCc1cnc(N2CC(Oc3cc([C@@H]4CN(C(=O)[C@@H](O)CO)C[C@@]4(C)[C@@H](C)O)ccc3OC)C2)nc1 [Compound 017, (S)-1-((3S,4S)-4-(3-((1-(5-ethylpyrimidin-2-yl)azetidin-3-yl)oxy)-4-methoxyphenyl)-3-((R)-1-hydroxyethyl)-3-methylpyrrolidin-1-yl)-2,3-dihydroxypropan-1-one]		significantly higher than that control compound	
	effectively inhibit PDE4B	COc1ccc([C@@H]2CN(C(=O)[C@@H](O)CO)C[C@@]2(C)[C@@H](C)O)cc1OC1CN(c2ncc(Cl)cn2)C1 [Compound 018, (S)-1-((3S,4S)-4-(3-((1-(5-chloropyrimidin-2-yl)azetidin-3-yl)oxy)-4-methoxyphenyl)-3-((R)-1-hydroxyethyl)-3-methylpyrrolidin-1-yl)-2,3-dihydroxypropan-1-one]		significantly higher than that control compound	
1.87 nM		COc1ccc([C@@H]2CN(C(=O)[C@@H](O)CO)C[C@@]2(C)[C@@H](C)O)cc1OC1CN(c2cnc(C#N)cn2)C1 [Compound 019, 5-(3-(5-((3S,4S)-1-((S)-2,3-dihydroxypropanoyl)-4-((R)-1-hydroxyethyl)-4-methylpyrrolidin-3-yl)-2-methoxyphenoxy)azetidin-1-yl)pyrazine-2-carbonitrile]			
1.97 nM		COc1ccc(N2CC(Oc3cc([C@@H]4CN(C(=O)[C@@H](O)CO)C[C@@]4(C)[C@@H](C)O)ccc3OC)C2)cn1 [Compound 020, (S)-2,3-dihydroxy-1-((3S,4S)-3-((R)-1-hydroxyethyl)-4-(4-methoxy-3-((1-(6-methoxypyridin-3-yl)azetidin-3-yl)oxy)phenyl)-3-methylpyrrolidin-1-yl)propan-1-one]	9.38 nM		
1.3 nM		COc1ccc([C@@H]2CN(C(=O)[C@@H](O)CO)C[C@@]2(C)[C@@H](C)O)cc1OC1CN(c2ncc(Cl)cc2C)C1 [Compound 023, (S)-1-((3S,4S)-4-(3-((1-(5-chloro-3-methylpyridin-2-yl)azetidin-3-yl)oxy)-4-methoxyphenyl)-3-((R)-1-hydroxyethyl)-3-methylpyrrolidin-1-yl)-2,3-dihydroxypropan-1-one]	5.4 nM		
	effectively inhibit PDE4B	COc1ccc([C@@H]2CN(C(=O)[C@@H](O)CO)C[C@@]2(C)[C@@H](C)O)cc1OC1CN(c2ncc(Cl)cc2F)C1 [Compound 024, (S)-1-((3S,4S)-4-(3-((1-(5-chloro-3-fluoropyridin-2-yl)azetidin-3-yl)oxy)-4-methoxyphenyl)-3-((R)-1-hydroxyethyl)-3-methylpyrrolidin-1-yl)-2,3-dihydroxypropan-1-one]		significantly higher than that control compound	IC50 [1]: 6.56 nM
2.76 nM		COc1ccc([C@@H]2CN(C(=O)[C@@H](O)CO)C[C@@]2(C)[C@@H](C)O)cc1OC1CN(c2ccc(F)c(C)n2)C1 [Compound 026, (S)-1-((3S,4S)-4-(3-((1-(5-fluoro-6-methylpyridin-2-yl)azetidin-3-yl)oxy)-4-methoxyphenyl)-3-((R)-1-hydroxyethyl)-3-methylpyrrolidin-1-yl)-2,3-dihydroxypropan-1-one]	14.9 nM		
14.3 nM		CCc1nc(N2CC(Oc3cc([C@@H]4CN(C(=O)[C@@H](O)CO)C[C@@]4(C)[C@@H](C)O)ccc3OC)C2)ccc1C [Compound 027, (S)-1-((3S,4S)-4-(3-((1-(6-ethyl-5-methylpyridin-2-yl)azetidin-3-yl)oxy)-4-methoxyphenyl)-3-((R)-1-hydroxyethyl)-3-methylpyrrolidin-1-yl)-2,3-dihydroxypropan-1-one]			IC50 (PDE4D)/IC50 (PDE4B) (PDE4B): 1.73; IC50 (PDE4D): 24.8 nM
	effectively inhibit PDE4B	CCc1ccc(N2CC(Oc3cc([C@@H]4CN(C(=O)[C@@H](O)CO)C[C@@]4(C)[C@@H](C)O)ccc3OC)C2)nc1C [Compound 029, (S)-1-((3S,4S)-4-(3-((1-(5-ethyl-6-methylpyridin-2-yl)azetidin-3-yl)oxy)-4-methoxyphenyl)-3-((R)-1-hydroxyethyl)-3-methylpyrrolidin-1-yl)-2,3-dihydroxypropan-1-one]		significantly higher than that control compound	
	effectively inhibit PDE4B	CCc1cnc(N2CC(Oc3cc([C@@H]4CN(C(=O)[C@@H](O)CO)C[C@@]4(C)[C@@H](C)O)ccc3OC)C2)cc1C [Compound 030, (S)-1-((3S,4S)-4-(3-((1-(5-ethyl-4-methylpyridin-2-yl)azetidin-3-yl)oxy)-4-methoxyphenyl)-3-((R)-1-hydroxyethyl)-3-methylpyrrolidin-1-yl)-2,3-dihydroxypropan-1-one]		significantly higher than that control compound	
